From ChEMBL document CHEMBL4765349, “Design, synthesis and biological evaluation of novel N-sulfonylamidine-based derivatives as c-Met inhibitors via Cu-catalyzed three-component reaction” (Eur J Med Chem, 2020) come the findings set out here.

The test system of one assay is HT-29. The experiment in a line: cells. The conditions noted are these: Homo sapiens, HT-29, 72 h.
The next assay concerns A549. The experiment in a line: cells. To be noted: Homo sapiens, A549, 72 h.
The next assay deals with MKN-45. Briefly: Cytotoxicity against human MKN-45 cells assessed as inhibition of cell proliferation measured after 72 hrs by MTT assay. Type of assay: functional, cell-based. The conditions noted are these: MKN-45, 72 h. A general note: Formazan colour is commonly taken as a measure of viable cells.
The next assay concerns MDA-MB-231. Briefly: Cytotoxicity against human MDA-MB-231 cells assessed as inhibition of cell proliferation measured after 72 hrs by MTT assay. It counts as functional, cell-based. To be noted: MDA-MB-231, 72 h.

For `COCC/C(=N\S(=O)(=O)Cc1ccccc1F)Nc1ccc(Oc2ccnc3cc(OC)c(OC)cc23)c(F)c1`, the IC50 was found to be 3.16 µM in the assay on HT-29, 2.85 µM with A549, 3.26 µM with MKN-45 and 5.67 µM in the assay with MDA-MB-231.

In the case of `CCCCC/C(=N\S(=O)(=O)Cc1ccc(F)cc1)Nc1ccc(Oc2ccnc3ccsc23)c(F)c1`, the IC50 was determined as 7.06 µM in the assay on HT-29, 6.23 µM with A549, 9.17 µM in the assay with MKN-45 and 14.6 µM in the assay on MDA-MB-231.

`COc1cc2nccc(Oc3ccc(N/C(Cc4ccsc4)=N\S(=O)(=O)Cc4ccccc4)cc3F)c2cc1OC`: the results for the IC50 in the assay with HT-29, in the assay on A549 and with MDA-MB-231 were 16.5 µM, 14.3 µM and 23.8 µM, respectively.

Consider `COc1cc2nccc(Oc3ccc(N/C(C)=N/S(=O)(=O)Cc4ccccc4)cc3F)c2cc1OC`, for which the IC50 worked out at 5.85 µM in the assay on HT-29, 5.16 µM with A549, 5.99 µM with MKN-45 and 9.29 µM in the assay on MDA-MB-231.

For the molecule `CCCCC/C(=N\S(=O)(=O)Cc1ccccc1)Nc1ccc(Oc2ccnc3ccsc23)c(F)c1`, the IC50 in the assay with HT-29 is 9.63 µM; in the assay with A549 it was 8.68 µM; with MKN-45, 11.5 µM; with MDA-MB-231, 15.3 µM.

Take `COc1cc2nccc(Oc3ccc(N/C(Cc4cccnc4)=N\S(=O)(=O)Cc4ccc(F)cc4)cc3F)c2cc1OC`: the IC50 in the assay on HT-29 came to 15.5 µM; in the assay with A549, 13.2 µM; with MKN-45 it was 18.6 µM; in the assay on MDA-MB-231, 22.3 µM.

On to `COCC/C(=N\S(=O)(=O)Cc1ccc(Cl)cc1)Nc1ccc(Oc2ccnc3cc(OCCCN4CCCCC4)c(OC)cc23)c(F)c1`, for which the concentration for half-maximal inhibition (IC50) in the assay with HT-29 came out at 0.41 µM; with A549, 0.35 µM; in the assay on MKN-45, 0.65 µM; with MDA-MB-231, 1.12 µM.

Consider `COCC/C(=N\S(=O)(=O)Cc1ccc(C)cc1)Nc1ccc(Oc2ccnc3cc(OC)c(OC)cc23)c(F)c1`, for which the IC50 came out at 8.74 µM in the assay with HT-29, 8.02 µM with A549, 9.75 µM in the assay on MKN-45 and 13.7 µM in the assay with MDA-MB-231.

Turning to `CCCCOc1cc2nccc(Oc3ccc(N/C(CCOC)=N/S(=O)(=O)Cc4ccc(Cl)cc4)cc3F)c2cc1OC`, the 50% inhibitory concentration (IC50) with HT-29 turned out to be 2.85 µM; in the assay on A549, 2.56 µM; with MKN-45 it was 3.05 µM; in the assay with MDA-MB-231, 5.46 µM.

Take `CCCCOc1cc2nccc(Oc3ccc(N/C(CCOC)=N/S(=O)(=O)Cc4ccc(Cl)c(Cl)c4)cc3F)c2cc1OC`: the 50% inhibitory concentration (IC50) with HT-29 stood at 4.05 µM; in the assay on A549 it was 3.53 µM; in the assay with MKN-45, 4.36 µM; in the assay on MDA-MB-231, 7.19 µM.

On to `COc1cc2nccc(Oc3ccc(N/C(C)=N/S(=O)(=O)Cc4ccc(F)cc4)cc3F)c2cc1OC`, for which the IC50 was 4.12 µM in the assay with HT-29, 3.76 µM in the assay with A549, 4.55 µM in the assay on MKN-45 and 7.65 µM in the assay on MDA-MB-231.

Regarding `COc1cc2nccc(Oc3ccc(N/C(CC4CCCCC4)=N\S(=O)(=O)Cc4ccccc4)cc3F)c2cc1OC`, the IC50 is 14.5 µM with HT-29, 12.2 µM in the assay with A549, 16.3 µM in the assay on MKN-45 and 20.4 µM with MDA-MB-231.

For the molecule `COCC/C(=N\S(=O)(=O)Cc1ccc(Cl)c(Cl)c1)Nc1ccc(Oc2ccnc3cc(OCCCN4CCOCC4)c(OC)cc23)c(F)c1`, the IC50 in the assay on HT-29 is 0.59 µM; in the assay on A549, 0.47 µM; in the assay on MKN-45, 0.72 µM; in the assay on MDA-MB-231, 1.04 µM.

Turning to `COCC/C(=N\S(=O)(=O)Cc1ccc(Cl)cc1)Nc1ccc(Oc2ccnc3cc(OCCCN4CCN(C)CC4)c(OC)cc23)c(F)c1`, the half-maximal inhibitory concentration (IC50) in the assay with HT-29 came to 0.36 µM; with A549 it was 0.32 µM; in the assay on MKN-45 it was 0.61 µM; in the assay with MDA-MB-231, 1.24 µM.

As to `COCC/C(=N\S(=O)(=O)Cc1ccc(Cl)cc1)Nc1ccc(Oc2ccnc3cc(OCCCN4CCC(C)CC4)c(OC)cc23)c(F)c1`, the IC50 with HT-29 is 0.55 µM; in the assay with A549, 0.38 µM; with MKN-45, 0.76 µM; in the assay with MDA-MB-231, 1.56 µM.

Regarding `COCC/C(=N\S(=O)(=O)Cc1ccc(C(F)(F)F)cc1)Nc1ccc(Oc2ccnc3cc(OC)c(OC)cc23)c(F)c1`, the IC50 came out at 13.2 µM in the assay on HT-29, 11.3 µM in the assay with A549, 15.3 µM in the assay with MKN-45 and 20.4 µM with MDA-MB-231.

As to `COCC/C(=N\S(=O)(=O)Cc1ccccc1C)Nc1ccc(Oc2ccnc3cc(OC)c(OC)cc23)c(F)c1`, the concentration for half-maximal inhibition (IC50) with HT-29 was 4.85 µM; in the assay on A549, 4.15 µM; in the assay with MKN-45 it was 5.16 µM; with MDA-MB-231, 8.19 µM.

`COc1cc2nccc(Oc3ccc(N/C(Cc4ccsc4)=N\S(=O)(=O)Cc4ccc(F)cc4)cc3F)c2cc1OC`: the IC50 with HT-29 turned out to be 11.2 µM; with A549 it was 10.1 µM; with MKN-45, 11.9 µM; in the assay with MDA-MB-231, 19.5 µM.

For `COCC/C(=N\S(=O)(=O)Cc1ccccc1)Nc1ccc(Oc2ccnc3cc(OC)c(OC)cc23)c(F)c1`, the 50% inhibitory concentration (IC50) with HT-29 came out at 3.52 µM; in the assay with A549 it was 3.14 µM; with MKN-45, 4.05 µM; in the assay on MDA-MB-231, 6.64 µM.

In the case of `COCC/C(=N\S(=O)(=O)Cc1ccc(Cl)c(Cl)c1)Nc1ccc(Oc2ccnc3cc(OC)c(OC)cc23)c(F)c1`, the IC50 with HT-29 amounted to 0.88 µM; in the assay on A549, 0.71 µM; in the assay on MKN-45 it was 1.16 µM; in the assay on MDA-MB-231 it was 3.32 µM.

For `CCCCC/C(=N\S(=O)(=O)Cc1ccc(F)cc1)Nc1ccc(Oc2ncnc3ccsc23)c(F)c1`, the IC50 with HT-29 came out at 11.2 µM; in the assay with A549 it was 10.3 µM; in the assay on MKN-45 it was 12.5 µM; in the assay on MDA-MB-231 it was 16.8 µM.

Take `COCC/C(=N\S(=O)(=O)Cc1ccc(Cl)cc1)Nc1ccc(Oc2ccnc3cc(OC)c(OC)cc23)c(F)c1`: the IC50 in the assay on HT-29 was found to be 0.91 µM; in the assay on A549, 0.62 µM; with MKN-45, 1.05 µM; in the assay with MDA-MB-231, 2.32 µM.

Consider `COCC/C(=N\S(=O)(=O)Cc1cccc(F)c1)Nc1ccc(Oc2ccnc3cc(OC)c(OC)cc23)c(F)c1`, for which the concentration for half-maximal inhibition (IC50) with HT-29 turned out to be 2.47 µM; with A549, 2.14 µM; in the assay on MKN-45, 3.52 µM; with MDA-MB-231, 5.34 µM.

For `CCCCC/C(=N\S(=O)(=O)Cc1ccccc1)Nc1ccc(Oc2ncnc3cc(OC)c(OC)cc23)c(F)c1`, the IC50 was determined as 30.5 µM with HT-29 and 27.1 µM in the assay with A549.

For the molecule `COCC/C(=N\S(=O)(=O)Cc1cccc(C)c1)Nc1ccc(Oc2ccnc3cc(OC)c(OC)cc23)c(F)c1`, the IC50 amounted to 8.02 µM in the assay with HT-29, 7.54 µM with A549, 9.15 µM in the assay on MKN-45 and 13.1 µM in the assay with MDA-MB-231.

With `COCC/C(=N\S(=O)(=O)Cc1ccc(Cl)c(Cl)c1)Nc1ccc(Oc2ccnc3cc(OCCCN4CCN(C)CC4)c(OC)cc23)c(F)c1`, the half-inhibitory concentration (IC50) was found to be 0.74 µM in the assay on HT-29, 0.61 µM in the assay with A549, 0.82 µM in the assay with MKN-45 and 1.35 µM in the assay with MDA-MB-231.

In the case of `COc1cc2nccc(Oc3ccc(N/C(CC4CCCCC4)=N\S(=O)(=O)Cc4ccc(F)cc4)cc3F)c2cc1OC`, the IC50 in the assay on HT-29 turned out to be 10.3 µM; in the assay with A549 it was 9.43 µM; in the assay with MKN-45, 15.2 µM; with MDA-MB-231, 19.7 µM.

As to `COc1cc2nccc(Oc3ccc(N/C(Cc4ccccc4)=N\S(=O)(=O)Cc4ccc(F)cc4)cc3F)c2cc1OC`, the figures for the half-maximal inhibitory concentration (IC50) in the assay with HT-29, with A549 and in the assay on MDA-MB-231 were 23.7 µM, 20.4 µM and 32.5 µM, respectively.

As for `COc1cc2nccc(Oc3ccc(N/C(Cc4ccccc4)=N\S(=O)(=O)Cc4ccccc4)cc3F)c2cc1OC`, the half-maximal inhibitory concentration (IC50) in the assay with HT-29 was found to be 32.6 µM; in the assay with A549, 28.4 µM; with MKN-45, 26.3 µM.

The term IC50 denotes the concentration that inhibits the measured activity by half.
